Assays:
[1] = test system: MCM4 gene promoter in A3 cells; test: Oxidative DNA damage within MCM4 gene promoter (qPCR); format: cell-based, human; details: 10 μM, 72 h
Description: We adapted the procedure described by O’Callaghan et al. ([46]) to measure oxidative DNA damage at the MCM4 gene promoter region. This is a qPCR method based on differences in PCR kinetics between DNA template digested by FPG and undigested DNA. We have modified the original protocol to incorporate another purified human OGG1 to quantify the accumulation of base lesions specific for OGG1, 8-oxoguanine. Conditions used for incubation were 200 ng of gDNA together with 2.4 μM of hOGG1 during 4 h. The quantitative real-time amplification of genomic DNA was performed as described by O’Callaghan et al. ([46]). Specific primers were used at a final concentration of 100 nM (promoterMCM4-F: 5′-GCTGTGATTGGTGAGGCCC -3′; promoterMCM4-R: 5′-CAAACCGCGAGACCCAGAG-3′) . Amplification cycling conditions were 10 min at 95°C, followed by 40 cycles of 95°C for 15 s and 60°C for 1 min. ΔCT method was run in an ABI quant studio 1 and all samples were loaded and analyzed in triplicate.
Figure 6. TH5487 treatment induces a downregulation of DNA replication genes (A) Gene Set Enrichment analysis plot of the DNA Replication Gene Ontology Gene Set. […] Only genes with a mean normalized count >5 were analyzed. […] Statistical significance was determined using a two-sided unpaired t-test (ns, non-significant, *P < 0.05, **P < 0.01, ***P < 0.001 and ****P < 0.0001).

[2] = test system: HEK293T and HEK293T(KO) cells; test: Colony area of HEK293T vs HEK293T(KO); format: cell-based, human; details: 8 days exposure
Description: 250 HEK293T or HEK293T (KO) cells were counted and seeded in 6-well plates for 8 days in the presence or absence of TH5487 at indicated concentrations. Colonies were directly scanned after removing media and drying colonies. Area of HEK293T or HEK293T(KO) colonies was digitally colour contrasted and then analysed using ImageJ. […]
untreated parental HEK293T. Data are average ±SEM of 4 technical replicates from 2 independent experiments. F. Comparative analysis of the colony area (pixels) for HEK293T or HEK293T(KO) cells exposed for eight days to TH5487 or DMSO. Data are average ±SEM of 4 technical replicates from 2 independent experiments. Statistical significance was determined using Mann Witney test (**, P<0.01, ***, P<0.001 and ****, P<0.0001 , ns, non-significant).
Supplementary Fig. S6: 8 -oxodG levels and cell cycle distribution. A. 8-oxodG accumulation in A3 knockdown cells. The indicated shNT cells were treated with 250 ng/ml doxycycline for 0, 96, or 144 h, and the amount of genomic 8-oxodG was quantified with LC -MS/MS. […] Cells were treated with 10 µM TH5487 or an equivalent volume DMSO for the indicated times, and the cell cycle distribution was determined by flow cytometry. […] A3 shNT (grey), sh2 (blue), and sh3 (red), were treated with 250 ng/ml doxycycline for 48 –120 h, and the cell cycle distribution was determined with flow cytometry. […]

SMILES: O=C(Nc1ccc(I)cc1)N1CCC(n2c(=O)[nH]c3c(Br)cccc32)CC1 [TH5487]
- Oxidative DNA damage at SP1 binding motif of MCM4 promoter [1]: significant accumulation of oxidative DNA damage
- Colony area, HEK293T compared to HEK293T (KO) [2]: significantly reduced
